Test results: PubChem BioAssay AID192 (DTP/NCI, 2004)
Several values for one entry are separate records, joined by “and”; a condition that tells them apart may be missing. Identical values can stand only once. Toxic doses and inconclusive results are not listed. Numbered stars: 1 amine (or outer) side, 2 acyl side, 3 side chain; on linkers, the order of the positions; unused ones are H or OH. Bridge positions count the residues as written; N and C are the ends. Square brackets hold non-standard residues; d marks the D form. Peptide text beside a SMILES is read from it. I, II: the chains in the order shown. Actinocin(1to9) = Cc1c2oc3c(C)ccc(C(=O)[*:2])c3nc-2c(C(=O)[*:1])c(N)c1=O; NMeV = CN[CH](C(=O)O)C(C)C; Aze = O=C(O)[CH]1CCN1; Sar = CNCC(=O)O

System: BDF1 mice, B16 melanoma ip, median survival T/C
Experiment: NCI In Vivo Anticancer Drug Screen. Data for tumor model B16 Melanoma (intraperitoneal) in B6D2F1 (BDF1) mice
Conditions: endpoint: median survival time, higher = longer survival
In short: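 Tumor-bearing mice received test compound or vehicle. Survival or tumor size was then measured in both groups. The treated-group figure was divided by the control-group figure.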

[1] = dose: 25.0 mg/kg/injection, schedule: Q01DX009 (ip), vehicle: saline with Tween-80
[2] = dose: 50.0 mg/kg/injection, schedule: Q01DX009 (ip), vehicle: saline with Tween-80
[3] = dose: 100.0 mg/kg/injection, schedule: Q01DX009 (ip), vehicle: saline with Tween-80
[4] = dose: 200.0 mg/kg/injection, schedule: Q01DX009 (ip), vehicle: saline with Tween-80
[5] = dose: 3.12 mg/kg/injection, schedule: Q01DX009 (ip), vehicle: saline with Tween-80
[6] = dose: 6.25 mg/kg/injection, schedule: Q01DX009 (ip), vehicle: saline with Tween-80
[7] = dose: 12.5 mg/kg/injection, schedule: Q01DX009 (ip), vehicle: saline with Tween-80
[8] = dose: 100.0 mg/kg/injection, schedule: Q04DX003 (ip), vehicle: Klucel (hydroxypropylcellulose) (HPC)
[9] = dose: 6.25 mg/kg/injection, schedule: Q01DX009 (ip), vehicle: saline
[10] = dose: 12.5 mg/kg/injection, schedule: Q01DX009 (ip), vehicle: saline
[11] = dose: 25.0 mg/kg/injection, schedule: Q01DX009 (ip), vehicle: saline
[12] = dose: 50.0 mg/kg/injection, schedule: Q01DX009 (ip), vehicle: saline
[13] = dose: 100.0 mg/kg/injection, schedule: Q01DX009 (ip), vehicle: saline

## Oc1ccc2ccccc2c1Cc1c(O)ccc2ccccc12
[1]
  T/C: 93 % of control
[2]
  T/C: 91 % of control
[3]
  T/C: 94 % of control
[4]
  T/C: 90 % of control

## CC(=N\O)/C(C)=N/O.CC(=N\O)/C(C)=N/O.[Ni]
dose: 3.0 mg/kg/injection, schedule: Q01DX009 (ip), vehicle: saline with Tween-80
  T/C: 93 % of control
dose: 6.0 mg/kg/injection, schedule: Q01DX009 (ip), vehicle: saline with Tween-80
  T/C: 87 % of control

## O=[N+]([O-])c1cc([N+](=O)[O-])cc(S(=O)(=O)O)c1
dose: 25.0 mg/kg/injection, schedule: Q04DX003 (ip), vehicle: saline
  T/C: 108 % of control
dose: 50.0 mg/kg/injection, schedule: Q04DX003 (ip), vehicle: saline
  T/C: 97 % of control
dose: 100.0 mg/kg/injection, schedule: Q04DX003 (ip), vehicle: saline
  T/C: 87 % of control

## O=Cc1ccc([N+](=O)[O-])s1
[5]
  T/C: 99 % of control
[6]
  T/C: 96 % of control
[7]
  T/C: 96 % of control
[1]
  T/C: 86 % of control

## C[NH-].C[NH-].[Cl][Pt+2][Cl]
dose: 0.39 mg/kg/injection, schedule: Q01DX009 (ip), vehicle: saline
  T/C: 102 % of control
dose: 0.78 mg/kg/injection, schedule: Q01DX009 (ip), vehicle: saline
  T/C: 104 % of control
dose: 1.56 mg/kg/injection, schedule: Q01DX009 (ip), vehicle: saline
  T/C: 112 % of control
dose: 3.13 mg/kg/injection, schedule: Q01DX009 (ip), vehicle: saline
  T/C: 121 % of control
dose: 8.0 mg/kg/injection, schedule: Q01DX009 (ip), vehicle: saline with Tween-80
  T/C: 154 % of control

## NC(=O)CC(NC(=O)OCc1ccccc1)C(N)=O (stereo unspecified)
[8]
  T/C: 100 % of control
dose: 200.0 mg/kg/injection, schedule: Q04DX003 (ip), vehicle: Klucel (hydroxypropylcellulose) (HPC)
  T/C: 87 % of control
dose: 400.0 mg/kg/injection, schedule: Q04DX003 (ip), vehicle: Klucel (hydroxypropylcellulose) (HPC)
  T/C: 87 % of control

## CCOC(=O)NO
dose: 75.0 mg/kg/injection, schedule: Q01DX009 (ip), vehicle: saline
  T/C: 100 % of control
dose: 150.0 mg/kg/injection, schedule: Q01DX009 (ip), vehicle: saline
  T/C: 105 % of control
dose: 300.0 mg/kg/injection, schedule: Q01DX009 (ip), vehicle: saline
  T/C: 103 % of control

## O=[N+]([O-])O.O=[N+]([O-])O.[NH-]C1CCCCC1[NH-].[Pt+2] (stereo unspecified)
dose: 0.25 mg/kg/injection, schedule: Q01DX009 (ip), vehicle: dextrose
  T/C: 110 % of control
dose: 0.5 mg/kg/injection, schedule: Q01DX009 (ip), vehicle: dextrose
  T/C: 120 % of control
dose: 1.0 mg/kg/injection, schedule: Q01DX009 (ip), vehicle: dextrose
  T/C: 160 % of control
dose: 2.0 mg/kg/injection, schedule: Q01DX009 (ip), vehicle: dextrose
  T/C: 183 % of control

## CO[C@@H]1[C@H](O)CC[C@]2(CO2)[C@H]1[C@@]1(C)O[C@@H]1CC=C(C)C
dose: 3.13 mg/kg/injection, schedule: Q01DX009 (ip), vehicle: saline with Tween-80
  T/C: 104 % of control
[6]
  T/C: 102 % of control
[7]
  T/C: 102 % of control
[1]
  T/C: 108 % of control
[2]
  T/C: 123 % of control

## CCN1CC(CCN2CCOCC2)C(c2ccccc2)(c2ccccc2)C1=O (stereo unspecified)
[9]
  T/C: 91 % of control
[10]
  T/C: 104 % of control
[11]
  T/C: 100 % of control
[12]
  T/C: 102 % of control
[13]
  T/C: 100 % of control

## CC1(C)OC(=O)N(CO)C1=O
[9]
  T/C: 95 % of control
[10]
  T/C: 94 % of control and 109 % of control
[11]
  T/C: 94 % of control and 115 % of control
[12]
  T/C: 108 % of control and 115 % of control
[13]
  T/C: 114 % of control and 115 % of control
dose: 200.0 mg/kg/injection, schedule: Q01DX009 (ip), vehicle: saline
  T/C: 109 % of control and 117 % of control

## CCOC(=O)C(=O)C(C#N)C(=O)OCC (stereo unspecified)
dose: 3.12 mg/kg/injection, schedule: Q01DX009 (ip), vehicle: Klucel (hydroxypropylcellulose) (HPC)
  T/C: 88 % of control
dose: 6.25 mg/kg/injection, schedule: Q01DX009 (ip), vehicle: Klucel (hydroxypropylcellulose) (HPC)
  T/C: 109 % of control
dose: 8.2 mg/kg/injection, schedule: Q01DX009 (ip), vehicle: Klucel (hydroxypropylcellulose) (HPC)
  T/C: 100 % of control
dose: 12.5 mg/kg/injection, schedule: Q01DX009 (ip), vehicle: Klucel (hydroxypropylcellulose) (HPC)
  T/C: 96 % of control and 100 % of control
dose: 18.0 mg/kg/injection, schedule: Q01DX009 (ip), vehicle: Klucel (hydroxypropylcellulose) (HPC)
  T/C: 96 % of control and 105 % of control

## CCSc1nc2nccnc2c(=O)[nH]1
dose: 100.0 mg/kg/injection, schedule: Q01DX009 (ip), vehicle: Klucel (hydroxypropylcellulose) (HPC)
  T/C: 102 % of control
dose: 200.0 mg/kg/injection, schedule: Q01DX009 (ip), vehicle: Klucel (hydroxypropylcellulose) (HPC)
  T/C: 97 % of control

## C1CCC(=NN=C2CCCCC2)CC1
dose: 50.0 mg/kg/injection, schedule: Q04DX003 (sc), vehicle: olive oil, sesame oil, peanut oil
  T/C: 111 % of control
dose: 100.0 mg/kg/injection, schedule: Q04DX003 (sc), vehicle: olive oil, sesame oil, peanut oil
  T/C: 95 % of control
dose: 200.0 mg/kg/injection, schedule: Q04DX003 (sc), vehicle: olive oil, sesame oil, peanut oil
  T/C: 102 % of control

## CC(C)CNC(=O)Nc1ccccc1C(F)(F)F
[1]
  T/C: 97 % of control
[2]
  T/C: 96 % of control
[3]
  T/C: 86 % of control and 93 % of control
[4]
  T/C: 105 % of control
dose: 400.0 mg/kg/injection, schedule: Q01DX009 (ip), vehicle: saline with Tween-80
  T/C: 97 % of control

## CC(C)OCCS(=O)(=O)Oc1ncc(Cl)cc1Cl
dose: 100.0 mg/kg/injection, schedule: Q04DX003 (ip), vehicle: saline with Tween-80
  T/C: 100 % of control
dose: 200.0 mg/kg/injection, schedule: Q04DX003 (ip), vehicle: saline with Tween-80
  T/C: 93 % of control

## ClC1(Cl)C2C=CC=CCC21 (stereo unspecified)
dose: 50.0 mg/kg/injection, schedule: Q04DX003 (ip), vehicle: other
  T/C: 107 % of control
dose: 100.0 mg/kg/injection, schedule: Q04DX003 (ip), vehicle: other
  T/C: 102 % of control
dose: 200.0 mg/kg/injection, schedule: Q04DX003 (ip), vehicle: other
  T/C: 86 % of control

## CCOC(=O)/C(=C\c1ccccc1)P(=O)(OCC)c1ccccc1 (stereo unspecified)
dose: 25.0 mg/kg/injection, schedule: Q04DX003 (ip), vehicle: Klucel (hydroxypropylcellulose) (HPC)
  T/C: 93 % of control
dose: 50.0 mg/kg/injection, schedule: Q04DX003 (ip), vehicle: Klucel (hydroxypropylcellulose) (HPC)
  T/C: 95 % of control
[8]
  T/C: 94 % of control

## CC(=O)NC(CO)C(=O)c1ccc(S(=O)(=O)c2ccccc2)cc1 (stereo unspecified)
[3]
  T/C: 102 % of control
[4]
  T/C: 93 % of control

## Cc1c2oc3c(C)ccc(C(=O)NC4C(=O)NC(C(C)C)C(=O)N5CCCC5C(=O)N(C)CC(=O)N(C)C(C(C)C)C(=O)OC4C)c3nc-2c(C(=O)NC2C(=O)NC(C(C)C)C(=O)N3CCC3C(=O)N(C)CC(=O)N(C)C(C(C)C)C(=O)OC2C)c(N)c1=O (stereo unspecified) (I: TV[Aze][Sar][NMeV] / II: TVP[Sar][NMeV]; ester I:1-I:C, II:1-II:C; linker I:N-II:N via Actinocin(1to9); configuration not given here)
dose: 0.23 mg/kg/injection, schedule: Q01DX009 (ip), vehicle: saline + alcohol
  T/C: 172 % of control
dose: 0.3 mg/kg/injection, schedule: Q04DX003 (ip), vehicle: saline + alcohol
  T/C: 163 % of control
dose: 19.4 micrograms/kg/injection, schedule: Q01DX009 (ip), vehicle: saline + alcohol
  T/C: 107 % of control
dose: 37.0 micrograms/kg/injection, schedule: Q01DX009 (ip), vehicle: saline + alcohol
  T/C: 182 % of control
dose: 75.0 micrograms/kg/injection, schedule: Q01DX009 (ip), vehicle: saline + alcohol
  T/C: 156 % of control and 190 % of control
dose: 100.0 micrograms/kg/injection, schedule: Q01DX009 (ip), vehicle: saline + alcohol
  T/C: 151 % of control
dose: 150.0 micrograms/kg/injection, schedule: Q01DX009 (ip), vehicle: saline + alcohol
  T/C: 159 % of control
dose: 250.0 micrograms/kg/injection, schedule: Q01DX009 (ip), vehicle: saline + alcohol
  T/C: 153 % of control

## CC1(C)N=C(N)N=C(N)N1c1ccc(OCCCCNC(=O)c2ccc(S(=O)(=O)F)cc2)c(Cl)c1
[7]
  T/C: 108 % of control
[1]
  T/C: 112 % of control
[2]
  T/C: 111 % of control
[3]
  T/C: 112 % of control

## CSc1ccc2c(c1)C(N1CCN(C)CC1)Cc1ccccc1S2 (stereo unspecified)
dose: 1.56 mg/kg/injection, schedule: Q01DX009 (ip), vehicle: saline with Tween-80
  T/C: 109 % of control
[5]
  T/C: 110 % of control

## C[N+](C)(C)C.N=C=O.N=C=O.N=C=O.N=C=O.[Co+2]
dose: 12.5 mg/kg/injection, schedule: Q04DX003 (ip), vehicle: saline with Tween-80
  T/C: 97 % of control
dose: 25.0 mg/kg/injection, schedule: Q04DX003 (ip), vehicle: saline with Tween-80
  T/C: 90 % of control
dose: 50.0 mg/kg/injection, schedule: Q04DX003 (ip), vehicle: saline with Tween-80
  T/C: 92 % of control
